Reference: US20230181614A1, “ADMINISTRATION OF CITICOLINE TO IMPROVE COGNITIVE PERFORMANCE, ATTENTIONAL PERFORMANCE, AND MOTOR FUNCTION” (KYOWA HAKKO BIO CO., LTD., priority 2014, published 2023)
“And” between values parts separate entries of the source, which are not always exact repeats. Equal entries are not always repeated.

Assays:
[1] = tested on: Healthy subjects, ages 13-18; test: Barratt Impulsiveness Scale (BIS); format: in vivo, human; set-up: BIS Attention, Mean / BIS Motor, Mean / BIS Total, Mean: scale not given here
Excerpt: Study participants were screened by telephone prior to study enrollment. Healthy subjects, ages 13-18, with no significant medical conditions and no history of co-morbid psychiatric disorder, current Axis I or II diagnosis, or previous participation in a pharmacotherapeutic trial, were selected. Use of any psychotropic medication or any previous head injury resulting in loss of consciousness for 5 or more minutes were used as exclusion criteria. While no participant met criteria for a neuropsychiatric disorder at enrollment, clinical assessments were still completed throughout the study to evaluate changes in mood state. In addition, self-reports of sleep habits, lifestyle, and exercise routines were also administered at baseline as well as at each study visit to assess changes in health habits during study participation. Following the completion of Visit 1 assessment, participants were given their 28-day supply of citicoline (250 mg or 500 mg) or placebo, which was randomly assigned. They were instructed to take one capsule a day every day for the next 28 days. Visit 2 occurred fourteen days after Visit 1. At Visit 2, the remaining study pills were counted and participant dosage calendars were checked to ensure compliance with the protocol. Additional neuropsychological measures and clinical assessments were administered during this visit. Participants returned for Visit 3 fourteen days later, on the 28th day of their study participation. The pill bottle and the dosage calendar were collected from each participant. Urine and blood were again obtained. Participants also participated in similar clinical and neuropsychological testing and clinical measures that were given during visit 1. The BIS is a questionnaire is a scale used to measure impulsiveness. It includes three subscales: attentional, motor, and non-planning impulsiveness. A total score, or a sum of the three factors, was also calculated. The scale was administered at the first and third visits to assess presence or absence of symptoms of impulsiveness.

[2] = tested on: Healthy subjects, ages 13-18; test: Ruff 2 & 7 test (visual attention); format: in vivo, human; details: for Ruff 2 & 7 Accuracy Difference Score V1 (Mean) / Ruff 2 & 7 Speed Difference Score V1 (Mean) / Ruff 2 & 7 Total Accuracy T Score V1 (Mean) / Ruff 2 & 7 Total Difference Score V1 (Mean) / Ruff 2 & 7 Total Speed T Score V1 (Mean): Visit 1; for Ruff 2 & 7 Accuracy Difference Score V3 (Mean) / Ruff 2 & 7 Speed Difference Score V3 (Mean) / Ruff 2 & 7 Total Accuracy T Score V3 (Mean) / Ruff 2 & 7 Total Difference Score V3 (Mean) / Ruff 2 & 7 Total Speed T Score V3 (Mean): Visit 3
Excerpt: Study participants were screened by telephone prior to study enrollment. Healthy subjects, ages 13-18, with no significant medical conditions and no history of co-morbid psychiatric disorder, current Axis I or II diagnosis, or previous participation in a pharmacotherapeutic trial, were selected. Use of any psychotropic medication or any previous head injury resulting in loss of consciousness for 5 or more minutes were used as exclusion criteria. While no participant met criteria for a neuropsychiatric disorder at enrollment, clinical assessments were still completed throughout the study to evaluate changes in mood state. In addition, self-reports of sleep habits, lifestyle, and exercise routines were also administered at baseline as well as at each study visit to assess changes in health habits during study participation. Following the completion of Visit 1 assessment, participants were given their 28-day supply of citicoline (250 mg or 500 mg) or placebo, which was randomly assigned. They were instructed to take one capsule a day every day for the next 28 days. Visit 2 occurred fourteen days after Visit 1. At Visit 2, the remaining study pills were counted and participant dosage calendars were checked to ensure compliance with the protocol. Additional neuropsychological measures and clinical assessments were administered during this visit. Participants returned for Visit 3 fourteen days later, on the 28th day of their study participation. The pill bottle and the dosage calendar were collected from each participant. Urine and blood were again obtained. Participants also participated in similar clinical and neuropsychological testing and clinical measures that were given during visit 1. The Ruff 2 & 7 measures two aspects of visual attention: sustained attention and selective attention. There are a series of 20 trials involving visual searching in which the respondent detects and marks through all given stimuli the digits “2” and “7”. In the 10 Automatic Detection trials, the target digits are embedded among alphabetical letters that serve as distractors. In the 10 Controlled Search trials, the target digits are embedded among other numbers that serve as distractors. Correct hits and errors are counted for each trial and serve as the basis for scoring the test. Accuracy scores evaluate the number of targets identified in relation to the number of possible targets. The Ruff 2 & 7 was administered at all three visits.

[3] = 250 mg/day group, visit difference score V3-V1
[4] = 500 mg/day group, visit difference score V3-V1

With `C[N+](C)(C)CCOP(=O)(O)OP(=O)([O-])OC[C@H]1O[C@@H](n2ccc(N)nc2=O)[C@H](O)[C@@H]1O` [citicoline, Cytidine 5′-diphosphocholine] the “BIS Attention, Mean” value ([1]; 250 mg/day, V1 (baseline)) was 18.52, the “BIS Motor, Mean” value ([1]; 250 mg/day, V1 (baseline)) was 22.22 and the “BIS Non-planning, Mean” value ([1]; 250 mg/day, V1 (baseline)) was 24.85. For the same compound, the “BIS Total, Mean” value ([1]; 250 mg/day, V1 (baseline)) was 65.59, the “BIS Attention, Mean” value ([1]; 250 mg/day, V3 (day 28)) was 18.59 and the “BIS Motor, Mean” value ([1]; 250 mg/day, V3 (day 28)) was 22.00. The “BIS Non-planning, Mean” value ([1]; 250 mg/day, V3 (day 28)) was 24.44, the “BIS Total, Mean” value ([1]; 250 mg/day, V3 (day 28)) was 65.04 and the “BIS Attention, Mean” value ([1]; 250 mg/day, V3-V1) was 0.07. The “BIS Motor, Mean” value ([1]; 250 mg/day, V3-V1) was -0.22, the “BIS Non-planning, Mean” value ([1]; 250 mg/day, V3-V1) was -0.41 and the “BIS Attention, Mean” value ([1]; 500 mg/day, V1 (baseline)) was 16.54. For the same compound, the “BIS Motor, Mean” value ([1]; 500 mg/day, V1 (baseline)) was 20.21, the “BIS Non-planning, Mean” value ([1]; 500 mg/day, V1 (baseline)) was 22.67 and the “BIS Total, Mean” value ([1]; 500 mg/day, V1 (baseline)) was 59.63. For the same compound, the “BIS Attention, Mean” value ([1]; 500 mg/day, V3 (day 28)) was 16.50, the “BIS Motor, Mean” value ([1]; 500 mg/day, V3 (day 28)) was 20.04 and 19.29 and the “BIS Non-planning, Mean” value ([1]; 500 mg/day, V3 (day 28)) was 21.71 and 22.42. The “BIS Total, Mean” value ([1]; 500 mg/day, V3 (day 28)) was 58.21, the “BIS Attention, Mean” value ([1]; 500 mg/day, V3-V1) was -0.04 and the “BIS Motor, Mean” value ([1]; 500 mg/day, V3-V1) was -1.00. For the same compound, the “BIS Non-planning, Mean” value ([1]; 500 mg/day, V3-V1) was -0.38, the “BIS Total, Mean” value ([1]; 500 mg/day, V3-V1) was -1.42 and the “Ruff 2 & 7 Accuracy Difference Score V1 (Mean)” value ([2]; 250 mg/day group) was 0.02. The “Ruff 2 & 7 Speed Difference Score V1 (Mean)” value ([2]; 250 mg/day group) was 0.01, the “Ruff 2 & 7 Total Accuracy T Score V1 (Mean)” value ([2]; 250 mg/day group) was 47.41 and the “Ruff 2 & 7 Total Difference Score V1 (Mean)” value ([2]; 250 mg/day group) was 0.01. The “Ruff 2 & 7 Total Speed T Score V1 (Mean)” value ([2]; 250 mg/day group) was 45.74, the “Ruff 2 & 7 Accuracy Difference Score V3 (Mean)” value ([2]; 250 mg/day group) was 0.01 and the “Ruff 2 & 7 Speed Difference Score V3 (Mean)” value ([2]; 250 mg/day group) was 0.01. The “Ruff 2 & 7 Total Accuracy T Score V3 (Mean)” value ([2]; 250 mg/day group) was 53.00, the “Ruff 2 & 7 Total Difference Score V3 (Mean)” value ([2]; 250 mg/day group) was 0.02 and the “Ruff 2 & 7 Total Speed T Score V3 (Mean)” value ([2]; 250 mg/day group) was 54.85. The “Ruff 2 & 7 Speed Difference Score V3-V1 (Mean)” value [2, 3] was 0.00, the “Ruff 2 & 7 Total Accuracy T Score V3-V1 (Mean)” value [2, 3] was 5.59 and the “Ruff 2 & 7 Total Difference Score V3-V1 (Mean)” value [2, 3] was 0.00. The “Ruff 2 & 7 Total Speed T Score V3-V1 (Mean)” value [2, 3] was 9.11, the “Ruff 2 & 7 Accuracy Difference Score V1 (Mean)” value ([2]; 500 mg/day group) was 0.02 and the “Ruff 2 & 7 Speed Difference Score V1 (Mean)” value ([2]; 500 mg/day group) was 0.01. For the same compound, the “Ruff 2 & 7 Total Accuracy T Score V1 (Mean)” value ([2]; 500 mg/day group) was 42.71, the “Ruff 2 & 7 Total Difference Score V1 (Mean)” value ([2]; 500 mg/day group) was 0.02 and the “Ruff 2 & 7 Total Speed T Score V1 (Mean)” value ([2]; 500 mg/day group) was 44.33. The “Ruff 2 & 7 Accuracy Difference Score V3 (Mean)” value ([2]; 500 mg/day group) was 0.00, the “Ruff 2 & 7 Speed Difference Score V3 (Mean)” value ([2]; 500 mg/day group) was 0.02 and the “Ruff 2 & 7 Total Accuracy T Score V3 (Mean)” value ([2]; 500 mg/day group) was 49.88. The “Ruff 2 & 7 Total Difference Score V3 (Mean)” value ([2]; 500 mg/day group) was 0.02, the “Ruff 2 & 7 Total Speed T Score V3 (Mean)” value ([2]; 500 mg/day group) was 53.75 and the “Ruff 2 & 7 Accuracy Difference Score V3-V1 (Mean)” value [2, 4] was -0.02. The “Ruff 2 & 7 Speed Difference Score V3-V1 (Mean)” value [2, 4] was 0.01, the “Ruff 2 & 7 Total Accuracy T Score V3-V1 (Mean)” value [2, 4] was 7.17 and the “Ruff 2 & 7 Total Difference Score V3-V1 (Mean)” value [2, 4] was 0.01. The “Ruff 2 & 7 Total Speed T Score V3-V1 (Mean)” value [2, 4] was 9.42.
